Assay results as given in patent US5958947A, “DNA-affinic hypoxia selective cytotoxins” (priority 1996, dated 1999).
Entries after “also recorded” stand apart in the source; their conditions may differ. Where a name gives a salt, the structure may show the parent alone. Read-outs that look alike come from different tables or passages of the source.

What was measured:
calf thymus Topo I = assay: Topoisomerase I interaction (relaxation of supercoiled DNA); assay type: biochemical; details: 800 μM, compound alone
V79 cells [1] = assay: Isoeffective to the oxygen dose (IsD); assay type: cell-based, Chinese hamster; details: Cricetulus griseus; for EC (isoeffective to oxygen at 7.5 Gy): read-out: Isoeffective to the oxygen dose at 7.5 Gy: IsD(7.5); for EC (isoeffective to oxygen at 20 Gy): read-out: Isoeffective to the oxygen dose at 20 Gy: IsD
Excerpt: The survival fraction under hypoxic conditions (plotted versus compound concentration) meets the aerobic survival fraction (radiation toxicity) at the IsD. The IsD value is a useful indicator of the overall potency of a compound as a sensitizer and cytotoxin of hypoxic cells. IsD is especially useful when comparing different compounds for hypoxic cytotoxicity and radiosensitizing efficacy.
FIGS. 5 and 6 illustrate the IsD at 7.5 Gy (FIG. 5A) and 20 Gy (FIG. 5B). FIGS. 5A and 6A include a comparison to the prior art NLA-1 compound. V79 cells were irradiated at 7.5 Gy or 20 Gy after a 1 hour exposure under hypoxia (symbols) or air (straight line), at various drug concentrations. No toxicity or radiosensitization for any tested compound was observed under aerobic conditions over the tested concentration ranges. IsD values were calculated from the intersections of the survival fractions of the hypoxic curves with the survival fraction in air. All data points in FIGS. 5 and 6 represent the mean of two replicate experiments.

human Topo II = assay: Topoisomerase II interaction (decatenation of kinetoplast DNA); assay type: biochemical; details: up to 1 mM
Procedure: A Topo II assay kit (TopoGEN, Inc., Columbus, Ohio) also was used to assay the topoisomerase II--THNLA-1 interaction. […] Individual reaction mixtures were heated for 30 minutes at 37° C. on a heating block, and then 2 μl of a 10% SDS-proteinase K solution was added to each reaction mixture. The resulting reaction mixtures then were heated for an additional 30 minutes at 37° C. After addition of a 0.1 volume of loading buffer, the reaction mixtures were extracted with CHCl3 prior to submarine electrophoresis on a 1% agarose gel containing ethidium bromide (0.5 μg/ml).

[2] = system: V79 Chinese hamster lung cells; assay: Radiosensitization of V79 cells; assay type: cell-based; details: for maximum SER value: hypoxic V79 cells, 100 μM for THNLA-1, non-toxic concentrations for others
Procedure: Samples of V79 Chinese hamster lung cells used in the following experiments were prepared as follows. V79 cells, exponentially growing as monolayer cultures in RPMI 1640 medium (Mediatech) supplemented with 10% fetal calf serum, were trypsinized, centrifuged for 5 min, harvested, then suspended in 25 ml Erlenmeyer flasks fitted with rubber caps at 5×10^5 cells/ml (5 ml). Individual flasks either were shaken (100 rpm) at 37° C. under aerobic conditions or made hypoxic by gassing with a 95% N2 (nitrogen)/5% CO2 (carbon dioxide) humidified gas mixture for 1 hour.
Radiosensitization studies were performed on V79 cells in a manner similar to the acute toxicity experiments, except that the survival fraction was determined after a predetermined radiation dose. […] One Gy is equal to 100 rads, wherein one rad is the quantity of ionizing radiation that results in the absorption of 100 ergs of energy per gram of irradiated material. Hypoxia was maintained throughout irradiation. […] Sensitization enhancement ratios (SER) were determined at a 10% survival level. […] The plotted points in FIGS. 3 and 4 represent the mean of 2 or 3 replicate experiments.

EMT6 tumors = assay: In vivo radiosensitization of EMT6 tumors; design: species or system balb mice; details: 0.103 mmol/g intraperitoneally, 20 Gy
V79 cells [3] = assay: Drug uptake: intracellular and extracellular concentrations in V79 cells; assay type: cell-based, Chinese hamster
Procedure: Also, uptake measurements at various times under both aerobic and hypoxic conditions were made. Afterwards, the samples were pelleted by centrifuging for 6 minutes at 0° C. A small volume of the supernatant (200 μl) was combined with 9 equal volumes (1.8 ml) of acetonitrile and the remaining supernatant was discarded. The samples were centrifuged again to remove residual supernatant and the pellets were lysed with 90 μl water and deproteinized with 0.9 ml acetonitrile. After centrifugation and filtration, all samples were stored at -70° C. until a UV spectroscopic analysis was made at two different wave lengths: 330 nm (nanometers) (absorption of the nitro-group) and 244 nm (λmax). […] Mean intracellular concentration of drug was calculated using a value of 810 fl as an intracellular water content of log-phase cells.
Concentrations were determined by UV spectrophotometry at 330 nm. The plotted points represent results from two experiments, in triplicate.

V79 cells [4] = assay: Drug uptake in the presence of ammonium chloride; assay type: cell-based, Chinese hamster; details: aerobic V79 cells, 60 μM input, 50 mM NH4Cl (stated for THNLA-1)
Procedure: Uptake measurements in the presence of the lysosomotropic agent ammonium chloride (NH4 Cl) also were performed in a manner as previously described.
Concentrations were determined by UV spectrophotometry at 330 nm. The plotted points represent the mean of two experiments.

[5] = Toxicity study in balb mice; assay type: in vivo
OVCAR cells = assay: Chemosensitization of OVCAR cells to L-PAM and cis-DDP; assay type: cell-based; details: OVCAR cells resistant to L-PAM and cis-DDP
Excerpt: A longer hypoxic preexposure time and a lower sensitizer dose are preferred over a shorter hypoxic preexposure time and a higher sensitizer dose. […] OVCAR cells are resistant to L-PAM and cis-DDP.

O=[N+]([O-])c1nccn1CCCNc1c2c(nc3ccccc13)CCSC2 [S-THNLA-1, 10-[3-(2-nitroimidazolyl)propylamino]-3,4-dihydro-1-H-thiopyrano[4,3-b]quinoline hydrochloride]
formation of nicked DNA by compound alone (calf thymus Topo I): caused the formation of some nicked DNA | EC (isoeffective to oxygen at 7.5 Gy) (V79 cells [1]; V79, 1 h): 60 µM | EC (isoeffective to oxygen at 20 Gy) (V79 cells [1]; V79, 1 h): ~103 µM | inhibition of Topo II-induced decatenation of kinetoplast DNA (human Topo II): did not inhibit the action of Topoisomerase II on kinetoplast DNA | EC (SER 1.6) ([2]; Cricetulus griseus, V79, 1 h, read-out: Hypoxic radiosensitizing potency: C1.6, concentration yielding an SER of 1.6, hypoxic V79 cells): 40 to 45 µM | EC (SER 1.6) ([2]; Cricetulus griseus, V79, read-out: Intracellular concentration at C1.6: C1.6i, hypoxic radiosensitization, V79 cells (tables)): 932 µM | EC (SER 1.6) ([2]; concentration yielding an SER of 1.6, hypoxic V79 cells, hydrochloride, read-out: Hypoxic radiosensitizing potency: C1.6): 40 µM | maximum SER value [2]: equal to OER | therapeutic index relative to NLA-1 ([2]; in vitro ThI): better therapeutic index than NLA-1 | Therapeutic index (ThI): IC50/A,1h /C1.6 ([2]; in vitro, V79 cells): about 15

Cl.O=[N+]([O-])c1nccn1CCCNc1c2c(nc3ccccc13)CCCC2 [THNLA-1, 9-[3-(2-nitro-1-imidazolyl)propylamino]-1,2,3,4-tetrahydroacridine hydrochloride]
administration time before irradiation for maximum radiosensitization (EMT6 tumors): at least one hour before irradiation | radiosensitizing effect in vivo (EMT6 tumors; EMT6 tumors in balb mice, hydrochloride): synergistic effect; also recorded: potent radiosensitizing effect; also recorded: enhanced the effects of 20 Gy radiation in EMT6 tumors to a similar degree as 2 mmol/g of etanidazole | EC (isoeffective to oxygen at 7.5 Gy) (V79 cells [1]; V79, 1 h, 7.5 Gy, 1 hour at 37° C.): ~40 µM | EC (isoeffective to oxygen at 20 Gy) (V79 cells [1]; V79, 20 Gy, 1 hour at 37° C.): ~78 µM | inhibition of Topo II-induced decatenation of kinetoplast DNA (human Topo II; hydrochloride): does not inhibit the Topo II-induced decatenation of KDNA even at very high concentrations; also recorded: did not inhibit decatenation of kinetoplast DNA | Ci over 15, 30 and 60 minutes, aerobic (V79 cells [3]; 20 μM, aerobic V79 cells, 37° C.): basically unchanged | Ci over time, hypoxic (V79 cells [3]; 20 μM, hypoxic V79 cells, 37° C.): a decrease of Ci over time | Ci compared with Ce (V79 cells [3]; V79 cells, 37° C., input 0 to 500 μM or 20 μM): substantially greater | aerobic mean uptake factor (Ci/Ce) compared to NLA-1 (V79 cells [3]; aerobic V79 cells): did not result in an increase of the aerobic mean uptake factor | input concentration at which the uptake factor (Ci/Ce) reaches a maximum (V79 cells [3]; aerobic, 30 minutes, 37° C.): about 100 μM | radiosensitization of hypoxic V79 cells ([2]; 1 hour at 37° C. before irradiation, hypoxic): Significant radiosensitization | EC (SER 1.6) ([2]; Cricetulus griseus, 1 h, concentration yielding an SER of 1.6, hypoxic V79 cells, read-out: Hypoxic radiosensitizing potency: C1.6): 19 µM | EC (SER 1.6) ([2]; Cricetulus griseus, hypoxic radiosensitization, V79 cells (tables), read-out: Intracellular concentration at C1.6: C1.6i): 443 µM | EC (SER 1.6) ([2]; Cricetulus griseus, hypoxic radiosensitization, V79 cells, read-out: Intracellular concentration for an SER of 1.6: C1.6i): 443 µM | radiosensitization when administered immediately after irradiation ([2]; V79 cells (hypoxic conditions), hydrochloride): radiosensitization also was not observed; also recorded: No radiosensitization was observed | radiosensitization under aerobic conditions ([2]; V79 cells, aerobic): Radiosensitization was not observed | radioprotection under aerobic conditions ([2]; aerobic): no radioprotection occurred | maximum SER value [2]: 3.1 | factor of decrease of Ci in the presence of NH4Cl (V79 cells [4]): about 3 | nontoxic concentration [5]: at least 0.129 mmol/g | chemosensitization to L-PAM and cis-DDP (OVCAR cells): effectively chemosensitizes OVCAR cells
